Assay results as given in PubChem BioAssay AID1259411 (Chemical Carcinogenesis Research Information System (CCRIS), 2018).
Calls of active or inactive are those of the source. The rule behind the calls is not given here.

Test system: rodent carcinogenicity bioassays, tumor incidence
Assay: CCRIS carcinogenicity studies
Details: Dose: 0, Dose: 0
Procedure, shortened: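 NCI-built, expert-reviewed records of carcinogenicity and related test outcomes (mutagenicity, tumor promotion/inhibition) compiled from published and report sources, historical span 1985-2011, not updated.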

Question: What does the source list for `CCn1cc(C(=O)O)c(=O)c2cc3c(cc21)OCO3`?
Answer: carcinogen call (Species: MOUSE, Strain/Sex: ICR/FEMALE, Route: ORAL, 50, 150, 500 PPM IN DIET FOR 78 WK (STUDY DURATION: 78 WK), 50, 150, 500 PPM IN DIET FOR 78 WK (STUDY DURATION: 78 WK)): inactive; negative; carcinogen call (Species: MOUSE, Strain/Sex: ICR/MALE, Route: ORAL, 50, 150, 500 PPM IN DIET FOR 78 WK (STUDY DURATION: 78 WK), 50, 150, 500 PPM IN DIET FOR 78 WK (STUDY DURATION: 78 WK)): inactive; negative; carcinogen call (Species: RAT, Strain/Sex: WISTAR/FEMALE, Route: ORAL, 30, 100, 300, 1000 PPM IN DIET FOR 104 WK (STUDY DURATION: 104 WK), 30, 100, 300, 1000 PPM IN DIET FOR 104 WK (STUDY DURATION: 104 WK)): inactive; negative; carcinogen call (Species: RAT, Strain/Sex: WISTAR/MALE, Route: ORAL, 30, 100, 300, 1000 PPM IN DIET FOR 104 WK (STUDY DURATION: 104 WK), 30, 100, 300, 1000 PPM IN DIET FOR 104 WK (STUDY DURATION: 104 WK), Tumor Site: Type of Lesion: TESTIS: BENIGN LEYDIG CELL TUMOR): active; positive

Question: What does the source list for `O=C1CN(/N=C/c2ccc([N+](=O)[O-])o2)C(=O)N1`?
Answer: carcinogen call (Species: MOUSE, Strain/Sex: B6C3F1/FEMALE, Route: ORAL, 1300, 2500 PPM IN FEED FOR 103 WK (STUDY DURATION: 105 WK), 1300, 2500 PPM IN FEED FOR 103 WK (STUDY DURATION: 105 WK), Tumor Site: Type of Lesion: OVARY: TUBULAR ADENOMA, MIXED TUMOR (BENIGN)): active; positive; carcinogen call (Species: MOUSE, Strain/Sex: B6C3F1/MALE, Route: ORAL, 1300, 2500 PPM IN FEED FOR 103 WK (STUDY DURATION: 105 WK), 1300, 2500 PPM IN FEED FOR 103 WK (STUDY DURATION: 105 WK)): inactive; negative; carcinogen call (Species: MOUSE, Strain/Sex: BDF1/FEMALE, Route: ORAL, 0.075, 0.3% IN DIET BEGINNING AT 9 WK OF AGE AND CONTINUING FOR DURATION OF STUDY (STUDY DURATION: 24 MO), 0.075, 0.3% IN DIET BEGINNING AT 9 WK OF AGE AND CONTINUING FOR DURATION OF STUDY (STUDY DURATION: 24 MO)): inactive; negative; carcinogen call (Species: MOUSE, Strain/Sex: BDF1/MALE, Route: ORAL, 0.075, 0.3% IN DIET BEGINNING AT 9 WK OF AGE AND CONTINUING FOR DURATION OF STUDY (STUDY DURATION: 24 MO), 0.075, 0.3% IN DIET BEGINNING AT 9 WK OF AGE AND CONTINUING FOR DURATION OF STUDY (STUDY DURATION: 24 MO)): inactive; negative; carcinogen call (Species: MOUSE, Strain/Sex: ICR/MALE, FEMALE, Route: TRANSPLACENTAL, 75 UG/G ADMINISTERED SUBCUTANEOUSLY TO MOTHERS ON DAYS 13, 15 AND 17 OF GESTATION (STUDY DURATION: 33 WK), Tumor Site: Type of Lesion: LUNG: PAPILLARY ADENOMA): active; positive; carcinogen call (Species: MOUSE, Strain/Sex: SWISS/FEMALE, Route: ORAL, 0.03% IN DIET FOR 441 D, THEN 0.04% IN DIET FOR DURATION OF STUDY (TOTAL AVERAGE DOSE: 58.76 MG/KG) (STUDY DURATION:, 0.03% IN DIET FOR 441 D, THEN 0.04% IN DIET FOR DURATION OF STUDY (TOTAL AVERAGE DOSE: 58.76 MG/KG) (STUDY DURATION:): inactive; negative; carcinogen call (Species: MOUSE, Strain/Sex: SWISS/FEMALE, Route: ORAL, 0.06% IN DIET FOR 441 D, THEN 0.075% IN DIET FOR DURATION OF STUDY (TOTAL AVERAGE DOSE: 115.59 MG/KG) (STUDY DURATION, 0.06% IN DIET FOR 441 D, THEN 0.075% IN DIET FOR DURATION OF STUDY (TOTAL AVERAGE DOSE: 115.59 MG/KG) (STUDY DURATION): inactive; negative; carcinogen call (Species: MOUSE, Strain/Sex: SWISS/FEMALE, Route: ORAL, 0.13% IN DIET FOR 441 D, THEN 0.155% IN DIET FOR DURATION OF STUDY (TOTAL AVERAGE DOSE: 224.07 MG/KG) (STUDY DURATION, 0.13% IN DIET FOR 441 D, THEN 0.155% IN DIET FOR DURATION OF STUDY (TOTAL AVERAGE DOSE: 224.07 MG/KG) (STUDY DURATION): inactive; negative; carcinogen call (Species: MOUSE, Strain/Sex: SWISS/MALE, Route: ORAL, 0.03% IN DIET FOR 441 D, THEN 0.04% IN DIET FOR DURATION OF STUDY (TOTAL AVERAGE DOSE: 43.63 MG/KG) (STUDY DURATION:, 0.03% IN DIET FOR 441 D, THEN 0.04% IN DIET FOR DURATION OF STUDY (TOTAL AVERAGE DOSE: 43.63 MG/KG) (STUDY DURATION:): inactive; negative; carcinogen call (Species: MOUSE, Strain/Sex: SWISS/MALE, Route: ORAL, 0.06% IN DIET FOR 441 D, THEN 0.075% IN DIET FOR DURATION OF STUDY (TOTAL AVERAGE DOSE: 83.59 MG/KG) (STUDY DURATION:, 0.06% IN DIET FOR 441 D, THEN 0.075% IN DIET FOR DURATION OF STUDY (TOTAL AVERAGE DOSE: 83.59 MG/KG) (STUDY DURATION:): inactive; negative; carcinogen call (Species: MOUSE, Strain/Sex: SWISS/MALE, Route: ORAL, 0.13% IN DIET FOR 441 D, THEN 0.155% IN DIET FOR DURATION OF STUDY (TOTAL AVERAGE DOSE: 181.14 MG/KG) (STUDY DURATION, 0.13% IN DIET FOR 441 D, THEN 0.155% IN DIET FOR DURATION OF STUDY (TOTAL AVERAGE DOSE: 181.14 MG/KG) (STUDY DURATION, Tumor Site: Type of Lesion: HEMATOPOIETIC SYSTEM: MALIGNANT LYMPHOMA): active; positive; carcinogen call (Species: RAT, Strain/Sex: F344/FEMALE, Route: ORAL, 600, 1300 PPM IN FEED FOR 103 WK (STUDY DURATION: 105 WK), 600, 1300 PPM IN FEED FOR 103 WK (STUDY DURATION: 105 WK)): inactive; negative; carcinogen call (Species: RAT, Strain/Sex: F344/MALE, Route: ORAL, 0.187% IN DIET FOR 104 WK (STUDY DURATION: 104 WK)): inactive; negative; carcinogen call (Species: RAT, Strain/Sex: F344/MALE, Route: ORAL, 1300, 2500 PPM IN FEED FOR 103 WK (STUDY DURATION: 105 WK), 1300, 2500 PPM IN FEED FOR 103 WK (STUDY DURATION: 105 WK), Tumor Site: Type of Lesion: KIDNEY: TUBULAR ADENOMA OR CARCINOMA, SUBCUTANEOUS TISSUE: FIBROMA, FIBROMA OR FIBROSARCOMA): active; positive; carcinogen call (Species: RAT, Strain/Sex: SPRAGUE-DAWLEY/FEMALE, Route: ORAL, 0.188% IN DIET FOR 2 YR (STUDY DURATION: 2 YR), Tumor Site: Type of Lesion: MAMMARY GLAND: FIBROADENOMA): active; positive; carcinogen call (Species: RAT, Strain/Sex: STRAIN-CD/FEMALE, Route: ORAL, 12, 24, 48 MG/KG BW IN DIET FOR 24 MO (STUDY DURATION: 24 MO), 12, 24, 48 MG/KG BW IN DIET FOR 24 MO (STUDY DURATION: 24 MO)): inactive; negative; carcinogen call (Species: RAT, Strain/Sex: STRAIN-CD/MALE, Route: ORAL, 12, 24, 48 MG/KG BW IN DIET FOR 24 MO (STUDY DURATION: 24 MO), 12, 24, 48 MG/KG BW IN DIET FOR 24 MO (STUDY DURATION: 24 MO)): inactive; negative

Question: With `COc1cc(/C=C/C(=O)O[C@H]2CC[C@]34C[C@]35CC[C@]3(C)[C@@H]([C@H](C)CCC=C(C)C)CC[C@@]3(C)[C@@H]5CC[C@H]4C2(C)C)ccc1O` as the compound, how does the carcinogen call (Species: MOUSE, Strain/Sex: B6C3F1/FEMALE, Route: ORAL, 200, 600, 2000 MG/KG/BW A DAY IN DIET FOR 78 WK (STUDY DURATION: 79 WK), 200, 600, 2000 MG/KG/BW A DAY IN DIET FOR 78 WK (STUDY DURATION: 79 WK)) read?
Answer: inactive; negative

Question: What about the carcinogen call (Species: MOUSE, Strain/Sex: B6C3F1/MALE, Route: ORAL, 200, 600, 2000 MG/KG/BW A DAY IN DIET FOR 78 WK (STUDY DURATION: 79 WK), 200, 600, 2000 MG/KG/BW A DAY IN DIET FOR 78 WK (STUDY DURATION: 79 WK)) of the same compound?
Answer: inactive; negative

Question: And the carcinogen call (Species: RAT, Strain/Sex: F344/FEMALE, Route: ORAL, 200, 600, 2000 MG/KG/BW/D IN DIET FOR 2 YR (STUDY DURATION: 105 WK), 200, 600, 2000 MG/KG/BW/D IN DIET FOR 2 YR (STUDY DURATION: 105 WK))?
Answer: inactive; negative

Question: And the carcinogen call (Species: RAT, Strain/Sex: F344/MALE, Route: ORAL, 200, 600, 2000 MG/KG/BW/D IN DIET FOR 2 YR (STUDY DURATION: 105 WK), 200, 600, 2000 MG/KG/BW/D IN DIET FOR 2 YR (STUDY DURATION: 105 WK))?
Answer: inactive; negative
